From US20060089395A1, “Nf-kb activation inhibitors” (priority 2002, published 2006)
Like-named read-outs stand apart in the source and are kept apart here.

Assays:
[1] = test system: Vascular smooth muscle cells of normal coronary artery (Cryo CASMC); experiment: Inhibitory test against proliferation of vascular smooth muscle cells of normal coronary artery under proliferation stimulation (MTS assay); type: cell-based; details: FGF and EGF stimulation, 72 hours
Procedure: Vascular smooth muscle cells of normal coronary artery (Cryo CASMC) were cultured for 2 hours in the presence or absence of a test substance in DMEM medium containing 0.5% of FBS and insulin (5 u g/ml). Then, FGF and EGF were added for proliferation stimulation. The mixture was cultured for 72 hours and proliferation of the cells were measured by the MTS assay. The results aree shown in the following

NF-κ B = experiment: Inhibitory activity of NF-κ B activation, luciferase reporter assay in HepG2 under TNF-α stimulation; type: cell-based, human; details: HepG2, TNF-α (40 ng/ml), 4 hours
How it was run: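 Readout is firefly luciferase luminescence, expressed as inhibition versus compound-free wells. Before this, HepG2 cells carrying a transiently transfected 5×NF-κB-site luciferase plasmid (6–24 h post-transfection) received test compound plus TNF-α (40 ng/ml) for 4 h.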

IL-6 = experiment: Inhibition of IL-6 production by TNFα stimulation in synovial fibroblasts derived from a rheumatoid patient (ELISA); type: cell-based, human; details: for IC50: synovial fibroblasts, read-out: Inhibition against Mediator Release IC50(nM) IL-6; for Inhibitory ratios (%) at 1000 nM, IL-6: in parentheses
Procedure: (§1) Synovial fibroblasts (Human Synoviocyte (RA-Positive), Toyobo, T4040-05) were cultured for 3 days in a medium containing 10 ng/ml of TNFα and a test compound. IL-6 and IL-8 in the supernatant were measured by the ELISA method, and PGE2 (prostaglandin E2) was measured by the EIA method.

IL-8 = experiment: Inhibition of IL-8 production by TNFα stimulation in synovial fibroblasts derived from a rheumatoid patient (ELISA); type: cell-based, human; details: for inhibition at 1 µM: 1000 nM, in parentheses, read-out: Inhibitory ratios (%) at 1000 nM, IL-8; for IC50: synovial fibroblasts, read-out: Inhibition against Mediator Release IC50(nM) IL-8
Procedure: as §1

PGE2 = experiment: Inhibition of PGE2 production by TNFα stimulation in synovial fibroblasts derived from a rheumatoid patient (EIA); type: cell-based, human; details: for IC50: synovial fibroblasts, read-out: Inhibition against Mediator Release IC50(nM) PGE2; for Inhibitory ratios (%) at 1000 nM, PGE2: in parentheses
Procedure: as §1

[2] = Homo sapiens, Fibroblast, comparison compounds, TNFα stimulation
[3] = Homo sapiens, Fibroblast, 72 h, 10 ng/ml TNFα, 3 days

Row | SMILES | Inhibitory Ratio of NF-κ B Activation(%) Drug Concentration 1 μg/mL (NF-κ B; 1 μg/mL) [%] | Inhibitory Ratio of NF-κ B Activation(%) Drug Concentration 10 μg/mL (NF-κ B; 10 μg/mL) [%] | IC50 (IL-6; [2]) [nM] | inhibition at 1 µM (IL-8; Homo sapiens, Fibroblast, 72 h) [%] | IC50 (IL-8; [2]) [nM] | IC50 (PGE2; [2]) [nM] | IC50 (IL-6; 10 ng/ml TNFα, 3 days) [nM] | also measured
1 | COc1ccc(Oc2ccc(C(F)(F)F)cc2NC(=O)c2cc(Cl)ccc2O)cc1 [Compound No. 253] | 96.3 | 99.5 |  |  |  |  |  | Inhibitory Ratio of Proliferation(%) Compound Concentration 250 nM ([1]; 250 nM): 84.1%; Inhibitory Ratio of Proliferation(%) Compound Concentration 500 nM ([1]; 500 nM): 91%
2 | O=C(Nc1ccc(-c2ccccc2)cc1)c1cc(C(F)(F)F)ccc1O [reference compound] |  |  | 140 | -67 | > 1000 | 292 |  | 
3 | O=C(Nc1cc(C(F)(F)F)cc(C(F)(F)F)c1)c1c(O)cccc1F [Compound No. 63] | 85.4 | 85.0 |  |  |  |  | 513 | IC50 (IL-8; 10 ng/ml TNFα, 3 days): 786 nM; IC50 (PGE2; 10 ng/ml TNFα, 3 days): 439 nM
4 | O=C(Nc1ccc(C(F)(F)F)cc1)c1cc(Cl)ccc1O [Reference Example 6, N-[4-(trifluoromethyl)phenyl]-5-chloro-2-hydroxybenzamide, reference compound] |  |  | > 1000 | 4.2 | > 1000 | > 1000 |  | Inhibitory ratios (%) at 1000 nM, IL-6 (IL-6): 36%; Inhibitory ratios (%) at 1000 nM, PGE2 (PGE2): −24%
5 | O=C(Nc1ccc(Cl)cc1C(F)(F)F)c1cc(Cl)ccc1O [Reference Example 3, N-[4-chloro-2-(trifluoromethyl)phenyl]-5-chloro-2-hydroxybenzamide, reference compound] |  |  | > 1000 | -43 | > 1000 | > 1000 |  | Inhibitory ratios (%) at 1000 nM, IL-6 (IL-6): −17%; Inhibitory ratios (%) at 1000 nM, PGE2 (PGE2): 20%
6 | O=C(Nc1cc(C(F)(F)F)cc(C(F)(F)F)c1)c1cc(C#Cc2ccccc2)ccc1O [Compound No. 22, N-[3,5-bis(trifluoromethyl)phenyl]-2-hydroxy-5-(phenylethynyl)-benzamide] |  |  |  |  |  |  |  | IC50 (IL-6; [3]): 665 nM; IC50 (IL-8; [3]): 869 nM; inhibition at 1 µg/mL (NF-κ B; Homo sapiens, 1 μg/mL, read-out: Inhibitory Ratio of NF-κ B Activation(%) Drug Concentration 1 μg/mL): 83.9%; inhibition at 10 µg/mL (NF-κ B; Homo sapiens, 10 μg/mL, read-out: Inhibitory Ratio of NF-κ B Activation(%) Drug Concentration 10 μg/mL): 97.1%
7 | O=C(Nc1cc(C(F)(F)F)cc(C(F)(F)F)c1)c1cc(CCc2ccccc2)ccc1O [Compound No. 24] | 92.3 | 98.3 |  |  |  |  | 593 | 
8 | O=C(Nc1ccc(Cl)c(Cl)c1)c1cc(Br)ccc1O [drawing 563, reference compound] |  |  | 205 | -12 | > 1000 | 208 |  | 
9 | CC(=O)c1ccc(NC(=O)c2cc(I)ccc2O)cc1 [reference compound] |  |  | 82 | -5.9 | > 1000 | > 1000 |  | Inhibitory ratios (%) at 1000 nM, PGE2 (PGE2): −3.9%
10 | O=C(Nc1ccccc1C(F)(F)F)c1cc(Cl)ccc1O [Reference Example 2, N-[2-(trifluoromethyl)phenyl]-5-chloro-2-hydroxybenzamide, reference compound] |  |  | 887 | 14 | > 1000 | 676 |  | 
11 | O=C(Nc1cccc(C(F)(F)F)c1)c1cc(Br)ccc1O [Reference Example 4, N-[3-(trifluoromethyl)phenyl]-5-bromo-2-hydroxybenzamide, reference compound] |  |  | 690 | 16 | > 1000 | 413 |  | 
12 | O=C(Nc1cc(C(F)(F)F)cc(C(F)(F)F)c1)c1cc(-n2cccc2)ccc1O [Compound No. 27] | 93.8 | 97.9 |  |  |  |  | 355 | IC50 (IL-8; 10 ng/ml TNFα, 3 days): 527 nM; IC50 (PGE2; 10 ng/ml TNFα, 3 days): 532 nM
13 | O=C(Nc1cc(Br)cc(C(F)(F)F)c1)c1cc(Br)ccc1O [Compound No. 86] | 96.7 | 98.7 |  |  |  |  | 565 | IC50 (PGE2; 10 ng/ml TNFα, 3 days): 562 nM
